In patent US12049444B2, “Monomethyl fumarate precursor drug compounds and pharmaceutical compositions thereof” (AGATHONBIO CO., LTD., priority 2019, dated 2024):
Counter-ions that a name gives are not always drawn.

Tests used:
[1] = cited from earlier work
[2] = rat, in vivo, po, 0.139 mmol/kg
Method: The test compounds and control compounds were each prepared in the same way and administered at a dose of 0.139 mmol/kg to rats, and after blood was collected at a predetermined time, plasma was separated. Analysis of the drug was performed using HPLC (XBridge column C18, Waters, mobile phase 0.1% formic acid:acetonitrile (30:70, %/%)) and MS/MS (ESI positive, MRM). Each commercial standard solution was mixed with rat blank plasma at a ratio of 9:1 to prepare standard solutions and calibrate at concentrations of 5, 50, 100, 500, 100 and 5,000 ng/ml. In addition, the QC sample was prepared at 100, 750 and 2,500 ng/ml concentrations by mixing rat blank plasma and QC standard solution in a 9:1 ratio. […] And the concentration of the active ingredient in rat plasma, that is, monomethyl fumarate, was quantified by applying the previously verified assay. For pharmacokinetic parameters, WinNonlin 5.2 (Pharsight, USA) program was used, and AUC0-t, AUC0-∞, Cmax, Tmax, and t1/2 were calculated by noncompartment modeling (best fit). Pharmacokinetic parameter results were expressed as mean (Mean) and standard deviation (SD), and statistically processed using the SPSS program (Statistical Package for the Social Sciences, 10.0K, USA).

Row | AUC0-24 [2] [ng·h/mL] | SMILES | safety in phase 1 clinical trial [1]
1 |  | COC(=O)/C=C/C(=O)OCCN1C(=O)CCC1=O [ALKS8700, diroximel fumarate] | proven to be safe
2 | 8280 | CCN(CC)C(=O)COC(=O)/C=C/C(=O)OC [Reference Example 1, 2-(diethylamino)-2-oxoethyl Methyl Fumarate] | proven to be safe
